Experiments:
Experiment in all cases: relative IC50 (inflection point of fitted viability curve, relative to fitted max inhibition); higher = less sensitive
Conditions in all cases: 72 h
KAI3 (IL-2 2.5 ng/mL) = tested on: KAI3 (IL-2 2.5 ng/mL)
Protocol: (§1)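 Drug sensitivity and resistance testing: 5 concentrations over a 10,000-fold range, 72 h at 37 °C, viability by CellTiter-Glo normalised to DMSO and benzethonium chloride controls. IC50 is the inflection point of a logistic fit (min fixed at 0, max fitted), so it is relative to the fitted maximal inhibition. Kept only where fitted max inhibition is at least 50%.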

NKL (IL-2 2.5 ng/mL) = tested on: NKL (IL-2 2.5 ng/mL)
Protocol: as §1

NK-92 (IL-2 2.5 ng/mL) = tested on: NK-92 (IL-2 2.5 ng/mL)
Protocol: as §1

[1] = tested on: normal primary NK cells, pool 1 (3 donors), resting (IL-2 0 ng/mL)
Protocol: as §1

DERL-7 (IL-2 2.5 ng/mL) = tested on: DERL-7 (IL-2 2.5 ng/mL)
Protocol: as §1

YT (IL-2 2.5 ng/mL) = tested on: YT (IL-2 2.5 ng/mL)
Protocol: as §1

SNK-6 (IL-2 2.5 ng/mL) = tested on: SNK-6 (IL-2 2.5 ng/mL)
Protocol: as §1

NK-YS (IL-2 2.5 ng/mL) = tested on: NK-YS (IL-2 2.5 ng/mL)
Protocol: as §1

KHYG-1 (IL-2 2.5 ng/mL) = tested on: KHYG-1 (IL-2 2.5 ng/mL)
Protocol: as §1

IMC-1 (IL-2 20 ng/mL) = tested on: IMC-1 (IL-2 20 ng/mL)
Protocol: as §1

Structure (SMILES) | relative IC50 (KAI3 (IL-2 2.5 ng/mL)) [nM] | relative IC50 (NKL (IL-2 2.5 ng/mL)) [nM] | relative IC50 (NK-92 (IL-2 2.5 ng/mL)) [nM] | relative IC50 [1] [nM] | relative IC50 (DERL-7 (IL-2 2.5 ng/mL)) [nM] | relative IC50 (YT (IL-2 2.5 ng/mL)) [nM] | relative IC50 (SNK-6 (IL-2 2.5 ng/mL)) [nM] | relative IC50 (NK-YS (IL-2 2.5 ng/mL)) [nM] | relative IC50 (KHYG-1 (IL-2 2.5 ng/mL)) [nM] | relative IC50 (IMC-1 (IL-2 20 ng/mL)) [nM]
S=P(N1CC1)(N1CC1)N1CC1 [Thio-TEPA] | 4010 | 4100 |  |  |  |  |  |  |  | 
CCOc1cc2ncc(C#N)c(Nc3ccc(OCc4ccccn4)c(Cl)c3)c2cc1NC(=O)/C=C/CN(C)C [Neratinib] |  |  | 206 | 364 | 216 |  |  |  |  | 
CC[C@]1(O)C[C@@H]2CN(CCc3c([nH]c4ccccc34)[C@@](C(=O)OC)(c3cc4c(cc3OC)N(C)[C@H]3[C@@](O)(C(=O)OC)[C@H](OC(C)=O)[C@]5(CC)C=CCN6CC[C@]43[C@@H]65)C2)C1 [Vinblastine] | 9.24 | 3.72 | 7.82 |  | 3.3 | 4.62 | 5.22 | 6.11 | 3.44 | 3.57
COc1cc(F)c(F)c(Nc2ccc(I)cc2F)c1NS(=O)(=O)C1(C[C@H](O)CO)CC1 [Refametinib] |  | 91.9 |  |  | 194 |  |  |  | 147 | 
Cn1c(=O)c(F)c(Nc2ccc(I)cc2F)c2c(=O)n(C[C@@H](O)CO)cnc21 [TAK-733] |  | 12.6 |  |  |  |  |  |  | 22.5 | 
CN(C)c1nc(N(C)C)nc(N(C)C)n1 [Altretamine] |  |  | > 10000 |  |  | > 10000 |  |  | > 10000 | 
O=C(O)c1ccc(O)c2ncccc12 [IOX-1] | 17000 | 29100 | 26400 |  | 21600 | 32700 | 20200 | 32200 | 28400 | 37400
CNC(=O)c1cccc2cc(Oc3ccnc4cc(OCC5(N)CC5)c(OC)cc34)ccc12 [Lucitanib] |  |  | 1910 |  |  | 3440 | 3720 | 2000 | 2000 | 
Cc1cc(C(=O)NOCCO)c(Nc2ccc(I)cc2F)n(C)c1=O [AZD-8330] |  | 10.2 | > 10000 |  |  |  | > 10000 |  | 13 | 
Oc1ncc(N(CCCl)CCCl)c(O)n1 [Uracil mustard] |  |  |  |  |  |  | > 10000 |  |  | 
CCCOc1ccn2c(C(C)=O)cc(-c3ccccc3S(C)(=O)=O)c2c1 [GSK2801] |  |  |  |  |  |  |  |  |  | > 10000
Cc1cc(C(C)Nc2ccccc2)c2nc(N3CCOCC3)cc(=O)n2c1 (centres undefined) [TGX-221] |  |  |  | 1450 |  |  |  |  |  | > 10000
CS(=O)(=O)CCNCc1ccc(-c2ccc3ncnc(Nc4ccc(OCc5cccc(F)c5)c(Cl)c4)c3c2)o1 [Lapatinib] |  |  |  |  |  |  | > 1000 |  |  | 
COc1cc2c(Nc3ccc(Cl)c(Cl)c3F)ncnc2cc1OC[C@@H]1C[C@@H]2CN(C)C[C@@H]2C1 [XL-647] |  | 133 | 183 | 157 |  |  |  |  |  | 
N#CC(c1ccnc(OCc2ccc(CN3CCOCC3)cc2)n1)c1nc2ccccc2s1 (centres undefined) [Bentamapimod] |  | 1810 |  |  | 1440 | 1590 |  |  | 1690 | 2230
COc1cc2c(cc1O)CC[C@@H]1[C@@H]2CC[C@]2(C)[C@@H](O)CC[C@@H]12 [2-methoxyestradiol] | 442 | 243 | 153 |  | 589 | 373 | 263 | 260 | 319 | 791
CO[C@H]1C[C@@H]2CC[C@@H](C)[C@@](O)(O2)C(=O)C(=O)N2CCCC[C@H]2C(=O)O[C@H]([C@H](C)C[C@@H]2CC[C@@H](OC(=O)C(C)(CO)CO)[C@H](OC)C2)CC(=O)[C@H](C)/C=C(\C)[C@@H](O)[C@@H](OC)C(=O)[C@H](C)C[C@H](C)/C=C/C=C/C=C/1C [Temsirolimus] | 0.5 | 0.09 |  |  | 0.57 | 0.61 | 0.26 | 0.31 | 1.32 | 
S=c1[nH]cnc2nc[nH]c12 [Mercaptopurine] | 2160 |  | 393 | > 10000 |  | 1410 | 137 | 725 | 1420 | 1590
COc1cc(Nc2ncc3c(n2)-c2ccc(Cl)cc2C(c2c(F)cccc2OC)=NC3)ccc1C(=O)O [Alisertib] | 116 | 52.5 | 41.3 |  | 28.2 | 91.9 | 39.5 | 22 | 50.5 | 116
CCN1CCN(Cc2ccc(-c3cc4c(N[C@H](C)c5ccccc5)ncnc4[nH]3)cc2)CC1 [NVP-AEE788] |  |  | 374 |  |  |  |  |  |  | 
C#Cc1cccc(Nc2ncnc3cc4c(cc23)OCCOCCOCCO4)c1 [Icotinib] |  |  | 1970 |  |  |  |  |  |  | 
COc1cc2ncnc(Nc3ccc(F)c(Cl)c3)c2cc1OCCCN1CCOCC1 [Gefitinib] | 1710 | 1770 | 2660 | 3700 | 3010 | 2390 |  |  | 2270 | 
O=S(=O)(c1cccc2c(O)nccc12)N1CCCNCC1 [Hydroxyfasudil] |  |  |  |  |  |  | 9460 |  |  | 
COc1ncc(-c2ccc3nccc(-c4ccnnc4)c3c2)cc1NS(=O)(=O)c1ccc(F)cc1F [Omipalisib] | 11.4 | 57.5 | 11.2 |  | 11.1 | 29 | 101 | 39.5 | 114 | 
O=C(Nc1ccc2[nH]nc(-c3ccncc3)c2c1)[C@@H]1CCN(CC(=O)N2CCN(c3ccc(-c4ncccn4)cc3)CC2)C1 |  | 516 |  | 1670 | 382 |  |  |  | 784 | > 10000
O=C(c1ccc(F)c(F)c1Nc1ccc(I)cc1F)N1CC(O)([C@@H]2CCCCN2)C1 [Cobimetinib] |  | 51.6 |  |  |  |  | > 1000 |  | 123 | 
OC[C@H]1O[C@@H](n2cnc3c2N=CNC[C@H]3O)C[C@@H]1O [Pentostatin] | > 10000 | > 10000 |  |  |  |  |  |  |  | 

— the supplement of paper PMC5908809
